Where two headings read alike, the source gives them in different places.
Legend:
[1] = target: Human KDR (residues 790-1356) (Homo sapiens (Human), UniProt P35968); assay: Human KDR kinase assay, HTRF KinEase (Example B-2); assay type: biochemical
Method in brief: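 Ten compound concentrations (3% DMSO final) were pre-plated, then KDR (790-1356) with biotinylated peptide in Mg/Mn/DTT buffer was added; ATP at Km (4.0 μM) started a 40 min room-temperature reaction. Detection used Eu-TK antibody and SA-XL665 in EDTA buffer; activity normalized to DMSO and reference inhibitor, IC50 by logistic fit.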

[2] = target: Human MER (residues 528-999) (Homo sapiens (Human), UniProt Q12866); assay: Human Mer kinase assay, HTRF KinEase (Example C-2); assay type: biochemical
Method in brief: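 HTRF KinEase TK assay with MER 528-999 (1 ng/well) in enzymatic buffer plus 5 mM MgCl2 and 1 mM DTT, biotinylated peptide substrate and ATP at Km (40 μM), 3% DMSO final, 60 min at room temperature. Stopped with EDTA detection mix (SA-XL665, TK antibody-Eu3+), read at 665/620 nm after 60 min; IC50 from 10-point 4-parameter fit, normalized to DMSO and 1 μM reference.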

[3] = target: Human MET (residues 956-1390) (Homo sapiens (Human), UniProt P08581); assay: Human Met kinase assay, HTRF KinEase (Example D-2); assay type: biochemical; details: read-out: c-Met IC50
Method in brief: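 HTRF KinEase assay on MET residues 956-1390 (0.1 ng/well) in buffer with 5 mM MgCl2, 1 mM DTT and 1 mM MnCl2, with biotinylated peptide substrate, ATP at Km, 10 compound concentrations and 3% DMSO final, run 40 min at room temperature. The […] signal was normalized to DMSO and to 1 μM reference compound, and IC50 came from a 4-parameter logistic fit.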

[4] = target: Mer (phospho-Mer, MERTK-transfected 293A cells) (Homo sapiens (Human), UniProt Q12866); assay: Mer autophosphorylation ELISA in transient transfected 293A cells (Example H); assay type: cell-based; details: cellular activity; Mer autophosphorylation ELISA in transient transfected 293A cells
Method in brief: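 MERTK-transfected 293A; 8-pt dose, 1 h, serum-free, 0.3% DMSO. Cold lysis with orthovanadate and protease/phosphatase inhibitors. Phospho-Mer by DuoSet IC ELISA vs phospho-Mer standard. IC50: 4-PL fit; DMSO = 100%, reference inhibitor = 0%.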

[5] = protocol of Example B-2 (other compounds)
[6] = protocol of Example C-2 (other compounds)
[7] = protocol of Example D-2 (other compounds)

Mer (phospho-Mer, MERTK-transfected 293A cells), sequence (Q12866 21-999): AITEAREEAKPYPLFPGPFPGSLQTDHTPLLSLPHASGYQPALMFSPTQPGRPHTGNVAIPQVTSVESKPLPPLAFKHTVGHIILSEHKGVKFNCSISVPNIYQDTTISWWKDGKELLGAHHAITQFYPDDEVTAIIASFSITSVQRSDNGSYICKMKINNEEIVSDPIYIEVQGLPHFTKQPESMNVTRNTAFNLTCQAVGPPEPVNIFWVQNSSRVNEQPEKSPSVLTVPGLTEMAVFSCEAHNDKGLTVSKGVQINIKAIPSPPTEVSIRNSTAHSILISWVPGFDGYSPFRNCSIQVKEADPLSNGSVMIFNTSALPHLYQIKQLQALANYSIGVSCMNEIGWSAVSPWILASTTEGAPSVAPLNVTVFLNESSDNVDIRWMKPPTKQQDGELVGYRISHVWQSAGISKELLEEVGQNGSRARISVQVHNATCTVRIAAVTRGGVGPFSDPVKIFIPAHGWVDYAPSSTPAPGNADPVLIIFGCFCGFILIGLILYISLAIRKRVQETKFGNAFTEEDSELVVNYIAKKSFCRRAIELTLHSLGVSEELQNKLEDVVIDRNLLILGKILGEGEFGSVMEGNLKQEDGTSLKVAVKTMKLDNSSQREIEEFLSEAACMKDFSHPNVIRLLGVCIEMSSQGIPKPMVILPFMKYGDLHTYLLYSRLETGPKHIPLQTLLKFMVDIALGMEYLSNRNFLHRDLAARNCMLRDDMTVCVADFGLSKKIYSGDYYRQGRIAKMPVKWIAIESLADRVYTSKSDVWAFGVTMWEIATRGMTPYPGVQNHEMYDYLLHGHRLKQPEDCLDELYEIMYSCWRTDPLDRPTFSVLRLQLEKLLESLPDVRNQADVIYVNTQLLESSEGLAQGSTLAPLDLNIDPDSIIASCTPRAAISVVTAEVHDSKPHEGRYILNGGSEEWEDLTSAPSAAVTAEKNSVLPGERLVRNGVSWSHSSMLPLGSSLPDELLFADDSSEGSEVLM
Human MER (residues 528-999), sequence (Q12866 528-999): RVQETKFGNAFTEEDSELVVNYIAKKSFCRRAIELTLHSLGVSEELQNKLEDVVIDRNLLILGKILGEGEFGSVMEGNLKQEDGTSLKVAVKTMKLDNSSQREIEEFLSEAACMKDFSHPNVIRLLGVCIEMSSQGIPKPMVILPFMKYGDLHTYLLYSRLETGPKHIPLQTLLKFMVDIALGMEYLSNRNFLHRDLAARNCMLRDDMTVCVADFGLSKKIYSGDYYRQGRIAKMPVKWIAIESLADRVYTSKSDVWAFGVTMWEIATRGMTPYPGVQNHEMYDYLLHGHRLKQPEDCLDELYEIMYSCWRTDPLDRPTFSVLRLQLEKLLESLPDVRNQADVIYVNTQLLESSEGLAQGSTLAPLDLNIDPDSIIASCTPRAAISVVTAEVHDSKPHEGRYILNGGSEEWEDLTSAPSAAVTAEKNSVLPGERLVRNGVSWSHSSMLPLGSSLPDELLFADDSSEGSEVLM
Human MET (residues 956-1390), sequence (P08581 956-1390): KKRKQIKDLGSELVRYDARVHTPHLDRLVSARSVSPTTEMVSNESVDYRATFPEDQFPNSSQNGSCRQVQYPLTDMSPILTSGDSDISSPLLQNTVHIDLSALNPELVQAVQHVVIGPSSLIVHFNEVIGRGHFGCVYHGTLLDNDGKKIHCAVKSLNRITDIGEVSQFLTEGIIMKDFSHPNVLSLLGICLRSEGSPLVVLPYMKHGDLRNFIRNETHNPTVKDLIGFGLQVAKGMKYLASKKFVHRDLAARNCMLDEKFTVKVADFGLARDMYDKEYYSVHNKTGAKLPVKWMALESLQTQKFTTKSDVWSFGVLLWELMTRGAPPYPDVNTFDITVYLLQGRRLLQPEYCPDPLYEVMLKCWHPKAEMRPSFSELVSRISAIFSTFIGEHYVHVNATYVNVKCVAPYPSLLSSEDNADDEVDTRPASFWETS
Human KDR (residues 790-1356), sequence (P35968 790-1356): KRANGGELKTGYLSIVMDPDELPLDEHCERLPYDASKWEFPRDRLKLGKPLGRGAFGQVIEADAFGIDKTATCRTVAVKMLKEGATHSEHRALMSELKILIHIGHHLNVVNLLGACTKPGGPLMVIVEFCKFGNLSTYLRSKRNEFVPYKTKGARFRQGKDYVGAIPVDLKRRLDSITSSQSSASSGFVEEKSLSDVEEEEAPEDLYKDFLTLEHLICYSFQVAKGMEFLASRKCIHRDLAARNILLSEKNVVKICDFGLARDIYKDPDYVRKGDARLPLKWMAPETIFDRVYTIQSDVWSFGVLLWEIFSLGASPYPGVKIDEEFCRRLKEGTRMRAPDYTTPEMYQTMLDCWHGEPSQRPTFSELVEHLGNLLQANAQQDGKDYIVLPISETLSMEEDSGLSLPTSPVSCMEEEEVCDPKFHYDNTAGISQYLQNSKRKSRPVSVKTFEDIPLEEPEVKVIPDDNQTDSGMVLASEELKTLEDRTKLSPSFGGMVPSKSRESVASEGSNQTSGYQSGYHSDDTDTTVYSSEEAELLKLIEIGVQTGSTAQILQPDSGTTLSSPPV

Row | SMILES | IC50 ([1]; protocol of Example B-2) | IC50 ([2]; protocol of Example C-2) | IC50 ([3]; protocol of Example D-2) | IC50 [4] | IC50 [1, 5] | IC50 [2, 6] | IC50 [3, 7]
1 | COc1cc2nccc(Oc3ccc(NC(=O)c4cn(C)c(C(=O)O)c(-c5ccc(F)cc5)c4=O)cc3F)c2nc1OC [Compound 553, 5-[[4-[(6,7-Dimethoxy-1,5-naphthyridin-4-yl)oxy]-3-fluorophenyl]carbamoyl]-3-(4-fluorophenyl)-1-methyl-4-oxopyridine-2-carboxylic acid] | > 300 nM | < 100 nM | < 100 nM | 100 to 300 nM | – | – | –
2 | COc1cc2c(Oc3ccc(NC(=O)c4ccc(C)n(-c5ccc(F)cc5)c4=O)cc3F)ccnc2cn1 [Compound 494, N-[3-fluoro-4-[(6-methoxy-1,7-naphthyridin-4-yl)oxy]phenyl]-1-(4-fluorophenyl)-6-methyl-2-oxopyridine-3-carboxamide] | 100 to 300 nM | < 100 nM | < 100 nM | < 100 nM | – | – | –
3 | COc1nc2c(Oc3ccc(NC(=O)c4c(C)nc(C)c(-c5ccc(F)cc5)c4O)cc3F)ccnc2cc1C [Compound 459, N-[3-fluoro-4-[(6-methoxy-7-methyl-1,5-naphthyridin-4-yl)oxy]phenyl]-5-(4-fluorophenyl)-4-hydroxy-2,6-dimethylpyridine-3-carboxamide] | 100 to 300 nM | < 100 nM | 100 to 300 nM | < 100 nM | – | – | –
4 | COc1cc2nccc(Oc3ccc(NC(=O)c4cnc(COC(C)=O)c(-c5ccc(F)cc5)c4O)cc3F)c2nc1OC [Compound 544, [5-[[4-[(6,7-dimethoxy-1,5-naphthyridin-4-yl)oxy]-3-fluorophenyl]carbamoyl]-3-(4-fluorophenyl)-4-hydroxypyridin-2-yl]methyl acetate] | < 100 nM | < 100 nM | < 100 nM | < 100 nM | – | – | –
5 | COCc1nc(C)c(-c2ccc(F)cc2)c(O)c1C(=O)Nc1ccc(Oc2ccnc3ccc(OC)nc23)cc1 [Compound 510, 5-(4-fluorophenyl)-4-hydroxy-2-(methoxymethyl)-N-[4-[(6-methoxy-1,5-naphthyridin-4-yl)oxy]phenyl]-6-methylpyridine-3-carboxamide] | 100 to 300 nM | < 100 nM | < 100 nM | < 100 nM | – | – | –
6 | COCCOc1ccc2nccc(Oc3ccc(NC(=O)c4c(C)nc(C)c(-c5ccc(F)cc5)c4O)cc3F)c2n1 [Compound 349, N-[3-fluoro-4-[[6-(2-methoxyethoxy)-1,5-naphthyridin-4-yl]oxy]phenyl]-5-(4-fluorophenyl)-4-hydroxy-2,6-dimethylpyridine-3-carboxamide] | – | – | – | < 100 nM | < 100 nM | < 100 nM | < 100 nM
7 | COc1cc2nccc(Oc3cc(F)c(NC(=O)c4cnc(C)c(-c5ccc(F)cc5)c4O)cc3F)c2nc1C [Compound 542, N-[2,5-difluoro-4-[(7-methoxy-6-methyl-1,5-naphthyridin-4-yl)oxy]phenyl]-5-(4-fluorophenyl)-4-hydroxy-6-methylpyridine-3-carboxamide] | 100 to 300 nM | < 100 nM | < 100 nM | < 100 nM | – | – | –
8 | COc1cnc2c(Oc3ccc(NC(=O)c4cc(C)nn(-c5ccc(F)cc5)c4=O)cc3)ccnc2c1 [Compound 522, 2-(4-fluorophenyl)-N-[4-[(7-methoxy-1,5-naphthyridin-4-yl)oxy]phenyl]-6-methyl-3-oxopyridazine-4-carboxamide] | > 300 nM | 100 to 300 nM | 100 to 300 nM | > 300 nM | – | – | –
9 | CCc1nc(C)c(-c2ccc(F)cc2)c(O)c1C(=O)Nc1ccc(Oc2ccnc3ccc(OC)nc23)cc1 [Compound 509, 2-ethyl-5-(4-fluorophenyl)-4-hydroxy-N-[4-[(6-methoxy-1,5-naphthyridin-4-yl)oxy]phenyl]-6-methylpyridine-3-carboxamide] | < 100 nM | < 100 nM | < 100 nM | < 100 nM | – | – | –
10 | C=C(C)c1cnc2c(Oc3ccc(NC(=O)c4cnc(C)c(-c5ccc(F)cc5)c4O)cc3)ccnc2c1 [Compound 454, 5-(4-fluorophenyl)-4-hydroxy-6-methyl-N-[4-[(7-prop-1-en-2-yl-1,5-naphthyridin-4-yl)oxy]phenyl]pyridine-3-carboxamide] | < 100 nM | < 100 nM | < 100 nM | < 100 nM | – | – | –
11 | COc1ccc2nccc(Oc3ccc(NC(=O)c4c(C)ncc(-c5ccc(F)cc5C)c4O)cc3F)c2n1 [Compound 480, N-[3-fluoro-4-[(6-methoxy-1,5-naphthyridin-4-yl)oxy]phenyl]-5-(4-fluoro-2-methylphenyl)-4-hydroxy-2-methylpyridine-3-carboxamide] | 100 to 300 nM | 100 to 300 nM | 100 to 300 nM | < 100 nM | – | – | –
12 | COc1cc2nccc(Oc3ccc(NC(=O)c4c(C)nc(C)c(-c5ccc(F)cc5CO)c4O)cc3F)c2nc1OC [Compound 518, N-[4-[(6,7-dimethoxy-1,5-naphthyridin-4-yl)oxy]-3-fluorophenyl]-5-[4-fluoro-2-(hydroxymethyl]phenyl]-4-hydroxy-2,6-dimethylpyridine-3-carboxamide] | < 100 nM | < 100 nM | < 100 nM | < 100 nM | – | – | –
13 | COc1cc2nccc(Oc3ccc(NC(=O)c4cn(C)c(CF)c(-c5ccc(F)cc5)c4=O)cc3)c2nc1OC [Compound 560, N-[4-[(6,7-Dimethoxy-1,5-naphthyridin-4-yl)oxy]phenyl]-6-(fluoromethyl)-5-(4-fluorophenyl)-1-methyl-4-oxopyridine-3-carboxamide] | > 300 nM | < 100 nM | < 100 nM | < 100 nM | – | – | –
14 | COc1ccc2nccc(Oc3ccc(NC(=O)c4c(C)n(C)cc(-c5ccc(F)cc5C)c4=O)cc3F)c2n1 [Compound 483, N-[3-fluoro-4-[(6-methoxy-1,5-naphthyridin-4-yl)oxy]phenyl]-5-(4-fluoro-2-methylphenyl)-1,2-dimethyl-4-oxopyridine-3-carboxamide] | > 300 nM | 100 to 300 nM | > 300 nM | < 100 nM | – | – | –
15 | CCc1ncc(C(=O)Nc2ccc(Oc3ccnc4cc(OC)c(OC)nc34)c(F)c2)c(O)c1-c1ccc(F)cc1 [Compound 504, N-[4-[(6,7-dimethoxy-1,5-naphthyridin-4-yl)oxy]-3-fluorophenyl]-6-ethyl-5-(4-fluorophenyl)-4-hydroxypyridine-3-carboxamide] | < 100 nM | < 100 nM | < 100 nM | < 100 nM | – | – | –
16 | C=C(C)c1cnc2c(Oc3ccc(NC(=O)c4c(C)nc(C)c(-c5ccc(F)cc5)c4O)cc3F)ccnc2c1 [Compound 451, 5-(4-fluorophenyl)-N-[3-fluoro-4-[(7-prop-1-en-2-yl-1,5-naphthyridin-4-yl)oxy]phenyl]-4-hydroxy-2,6-dimethylpyridine-3-carboxamide] | < 100 nM | < 100 nM | < 100 nM | < 100 nM | – | – | –
17 | Cc1nc(C)c(-c2ccc(F)cc2)c(O)c1C(=O)Nc1ccc(Oc2ccnc3cc(O)cnc23)c(F)c1 [Compound 554, N-[3-Fluoro-4-[(7-hydroxy-1,5-naphthyridin-4-yl)oxy]phenyl]-5-(4-fluorophenyl)-4-hydroxy-2,6-dimethylpyridine-3-carboxamide] | < 100 nM | < 100 nM | < 100 nM | < 100 nM | – | – | –
18 | COc1cc2nccc(Oc3ccc(NC(=O)c4ccc(C)n(-c5ccc(F)cc5)c4=O)cc3F)c2nc1OC [Compound 254, N-[4-[(6,7-Dimethoxy-1,5-naphthyridin-4-yl)oxy]-3-fluorophenyl]-1-(4-fluorophenyl)-6-methyl-2-oxopyridine-3-carboxamide] | – | – | – | < 100 nM | < 100 nM | < 100 nM | < 100 nM
19 | C=C(C)c1cnc2c(Oc3ccc(NC(=O)c4c(C)nc(C)c(-c5ccc(F)cc5)c4O)cc3)ccnc2c1 [Compound 455, 5-(4-fluorophenyl)-4-hydroxy-2,6-dimethyl-N-[4-[(7-prop-1-en-2-yl-1,5-naphthyridin-4-yl)oxy]phenyl]pyridine-3-carboxamide] | < 100 nM | < 100 nM | < 100 nM | < 100 nM | – | – | –
20 | COc1nc2c(Oc3ccc(NC(=O)c4cnc(C)c(-c5ccc(F)cc5)c4O)cc3F)ccnc2cc1C [Compound 458, N-[3-fluoro-4-[(6-methoxy-7-methyl-1,5-naphthyridin-4-yl)oxy]phenyl]-5-(4-fluorophenyl)-4-hydroxy-6-methylpyridine-3-carboxamide] | 100 to 300 nM | < 100 nM | 100 to 300 nM | < 100 nM | – | – | –

— patent US12371428B2 (Exelixis, Inc., priority 2019, dated 2025)
